Patent US20050095240A1, “NaCT as a target for lifespan expansion and weight reduction” (Medical College of Georgia Research, priority 2002, published 2005)
Where “and” joins values, the source holds several entries; their conditions need not be identical. Identical values can stand only once. Like-named read-outs stand apart in the source and are kept apart here.

Assays:
drIndy = drIndy (Drosophila melanogaster, UniProt Q9VVT2); conditions: for % Control of cDNA-specific [^3H]succinate uptake / cDNA-specific [^3H] succinate uptake: [3H]succinate 40 nM, inhibitor 2.5 mM; for cDNA-specific [^3H] succinate uptake: NaCl buffer pH 7.5
Sequence of drIndy (Q9VVT2 19-590): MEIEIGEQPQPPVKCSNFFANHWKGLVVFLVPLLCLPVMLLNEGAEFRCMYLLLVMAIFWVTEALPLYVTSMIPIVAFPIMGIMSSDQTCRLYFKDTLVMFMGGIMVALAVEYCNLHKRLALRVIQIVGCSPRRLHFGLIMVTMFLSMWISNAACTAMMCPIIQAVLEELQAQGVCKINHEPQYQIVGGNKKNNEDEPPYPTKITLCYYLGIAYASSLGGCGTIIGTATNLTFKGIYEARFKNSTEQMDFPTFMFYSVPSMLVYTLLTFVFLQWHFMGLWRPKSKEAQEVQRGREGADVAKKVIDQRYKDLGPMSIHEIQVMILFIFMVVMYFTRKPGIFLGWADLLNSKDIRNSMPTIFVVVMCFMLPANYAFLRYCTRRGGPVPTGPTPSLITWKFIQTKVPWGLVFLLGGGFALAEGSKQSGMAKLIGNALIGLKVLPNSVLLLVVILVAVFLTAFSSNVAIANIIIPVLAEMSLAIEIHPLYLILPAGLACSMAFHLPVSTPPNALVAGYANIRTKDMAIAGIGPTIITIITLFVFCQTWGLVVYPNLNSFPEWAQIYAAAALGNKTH

rat NaCT = target: T1, rat NaCT (Rattus norvegicus, UniProt Q8CJ44); test: Uptake via rat NaCT expressed in HRPE cells; type: cell-based; conditions: for Citrate Uptake, cDNA / Citrate Uptake, cDNA-specific: pH 7.5
T1 sequence (Q8CJ44 1-572): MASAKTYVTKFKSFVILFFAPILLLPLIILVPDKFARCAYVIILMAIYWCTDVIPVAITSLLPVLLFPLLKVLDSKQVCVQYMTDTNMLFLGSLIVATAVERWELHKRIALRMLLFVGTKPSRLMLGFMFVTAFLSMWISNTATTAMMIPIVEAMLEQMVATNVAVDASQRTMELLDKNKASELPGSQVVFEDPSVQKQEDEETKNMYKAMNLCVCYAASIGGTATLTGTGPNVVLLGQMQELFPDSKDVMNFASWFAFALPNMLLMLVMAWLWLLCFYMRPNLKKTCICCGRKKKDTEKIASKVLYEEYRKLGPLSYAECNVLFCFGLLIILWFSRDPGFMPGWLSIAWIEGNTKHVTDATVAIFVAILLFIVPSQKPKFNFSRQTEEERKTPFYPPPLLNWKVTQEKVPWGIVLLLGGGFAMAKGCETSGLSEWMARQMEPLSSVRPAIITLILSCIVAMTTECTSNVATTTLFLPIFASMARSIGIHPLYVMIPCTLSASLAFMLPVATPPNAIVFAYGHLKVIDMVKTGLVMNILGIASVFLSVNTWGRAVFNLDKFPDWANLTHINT

human NaCT = human NaCT (Homo sapiens, UniProt Q86YT5); test: Uptake via human NaCT expressed in HRPE cells; type: cell-based; conditions: for Citrate Uptake, cDNA / Citrate Uptake, cDNA-specific: pH 7.5
Sequence of human NaCT (Q86YT5 whole entry): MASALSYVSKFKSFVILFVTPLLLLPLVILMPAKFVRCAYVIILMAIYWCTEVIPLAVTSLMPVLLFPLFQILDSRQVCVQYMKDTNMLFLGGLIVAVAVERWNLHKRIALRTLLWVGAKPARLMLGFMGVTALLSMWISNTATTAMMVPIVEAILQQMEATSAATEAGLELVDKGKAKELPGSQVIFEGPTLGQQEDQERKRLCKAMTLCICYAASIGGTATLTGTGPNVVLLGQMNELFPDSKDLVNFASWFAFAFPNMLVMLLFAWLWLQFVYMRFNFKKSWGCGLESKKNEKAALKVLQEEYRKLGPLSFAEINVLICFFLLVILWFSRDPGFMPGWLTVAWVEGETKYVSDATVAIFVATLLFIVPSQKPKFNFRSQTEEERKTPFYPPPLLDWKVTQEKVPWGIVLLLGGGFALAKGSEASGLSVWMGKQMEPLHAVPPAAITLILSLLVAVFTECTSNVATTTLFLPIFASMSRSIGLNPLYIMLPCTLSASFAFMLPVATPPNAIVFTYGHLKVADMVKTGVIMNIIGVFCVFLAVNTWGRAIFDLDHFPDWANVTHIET

mouse NaCT = target: T2, mouse NaCT (Mus musculus, UniProt Q67BT3); test: Transport via mouse NaCT expressed in HRPE cells; type: cell-based
T2 sequence (Q67BT3 1-572): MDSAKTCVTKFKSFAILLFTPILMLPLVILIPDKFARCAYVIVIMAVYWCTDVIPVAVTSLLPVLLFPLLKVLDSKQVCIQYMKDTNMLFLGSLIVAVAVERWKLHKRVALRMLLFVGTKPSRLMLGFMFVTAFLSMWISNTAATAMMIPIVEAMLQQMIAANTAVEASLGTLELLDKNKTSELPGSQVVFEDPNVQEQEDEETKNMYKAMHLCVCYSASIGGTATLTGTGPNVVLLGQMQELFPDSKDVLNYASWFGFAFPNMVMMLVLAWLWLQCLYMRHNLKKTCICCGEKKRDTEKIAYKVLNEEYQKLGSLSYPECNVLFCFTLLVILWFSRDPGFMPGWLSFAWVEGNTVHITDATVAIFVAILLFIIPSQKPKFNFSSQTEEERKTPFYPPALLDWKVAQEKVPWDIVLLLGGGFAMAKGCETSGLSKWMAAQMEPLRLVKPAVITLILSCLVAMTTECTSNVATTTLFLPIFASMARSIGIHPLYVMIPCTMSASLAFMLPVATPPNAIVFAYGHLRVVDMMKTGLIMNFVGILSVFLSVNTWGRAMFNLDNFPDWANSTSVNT

[1] = [14C]citrate 7 μM, indicated salt
[2] = [14C]citrate 7 μM, rat NaCT cDNA-transfected HRPE, indicated salt
[3] = relative to NaCl, [14C]citrate 7 μM
[4] = [14C]-citrate 20 μM, human NaCT cDNA-transfected HRPE, indicated salt
[5] = [14C]-citrate 20 μM, indicated salt
[6] = citrate 35 μM, drIndy cDNA-transfected HRPE cells, indicated salt

`COC(=O)CCC(=O)OC` [Dimethylsuccinate] was tested. Which “% Control of cDNA-specific [^3H]succinate uptake” value (shortened to “% Control of cDNA-specific”) (drIndy) did it give?
Its value is 13%.

And the “cDNA-specific [^3H] succinate uptake” value (drIndy)?
The value was 14.1 ± 0.8 fmol/106 cells per min.

Which “Citrate Uptake, cDNA-specific, %” value (rat NaCT) does the source give for `[Cl-].[K+]` [KCl] here?
The value was 0%.

And the “Citrate Uptake, cDNA” value (rat NaCT)?
Its value is 0.6 ± 0.1 pmol/10^6 cells/min.

And the “Citrate Uptake, cDNA-specific” value (rat NaCT)?
Its value is 0.1 ± 0.1 pmol/10^6 cells/min.

And the “Citrate Uptake, cDNA-specific, %” value (human NaCT)?
Its value is 0%.

And the “Citrate Uptake, cDNA” value (human NaCT)?
The value was 1.1 ± 0.1 pmol/10^6 cells/min.

What about the “Citrate Uptake, cDNA-specific” value (human NaCT) of the same compound?
Its value is −0.1 ± 0.1^ pmol/10^6 cells/min.

What about the “Citrate uptake, drIndy” value (drIndy) of the same compound?
Its value is 33.8 ± 2.7 pmol/10^6 cells per min.

And the “Fold Increase of citrate uptake (drIndy vs vector)” value (“Fold Increase of citrate uptake” below) (drIndy)?
The value was 19.9 fold.

And the “Succinate uptake, drIndy” value (drIndy; pH 7.5)?
Its value is 111.0 ± 8.5 fmol/10^6 cells per min.

What does the source list for `[Cl-].[Li+]` [LiCl]?
Citrate Uptake, cDNA-specific (rat NaCT; [1]): 1.1 ± 0.1 pmol/10^6 cells/min; Citrate Uptake, cDNA (rat NaCT; [2]): 1.6 ± 0.1 pmol/10^6 cells/min; Citrate Uptake, cDNA-specific, % (rat NaCT; [3]): 3%; Citrate Uptake, cDNA (human NaCT; [4]): 2.0 ± 0.1 pmol/10^6 cells/min; Citrate Uptake, cDNA-specific (human NaCT; [5]): 0.7 ± 0.1 pmol/10^6 cells/min; Citrate Uptake, cDNA-specific, % (human NaCT; relative to NaCl): 1%; Citrate uptake, drIndy (drIndy; [6]): 52.1 ± 2.2 pmol/10^6 cells per min; Fold Increase of citrate uptake (drIndy vs vector) (drIndy; citrate 35 μM, indicated salt): 27.4 fold

`OC[C@@H](O)[C@@H](O)[C@H](O)[C@H](O)CO` [Mannitol] was tested. Which “Citrate Uptake, cDNA-specific” value (rat NaCT; [1]) did it give?
The value was 0.1 ± 0.1 pmol/10^6 cells/min.

And the “Citrate Uptake, cDNA” value (rat NaCT; [2])?
Its value is 0.7 ± 0.1 pmol/10^6 cells/min.

And the “Citrate Uptake, cDNA-specific, %” value (rat NaCT; [3])?
Its value is 0%.

What about the “Citrate uptake, drIndy” value (drIndy; [6]) of the same compound?
The value was 26.3 ± 0.3 pmol/10^6 cells per min.

What about the “Fold Increase of citrate uptake” value (drIndy; citrate 35 μM, indicated salt) of the same compound?
The value was 15.5 fold.

What does the source list for `CC(=O)N[C@@H](CC(=O)O)C(=O)O` [N-Acetylaspartate]?
% Control of cDNA-specific [^3H]succinate uptake (drIndy): 43%; cDNA-specific [^3H] succinate uptake (drIndy): 58.4 ± 1.5 fmol/106 cells per min

Which results are given for `CNC[C@H](O)[C@@H](O)[C@H](O)[C@H](O)CO.Cl` [NMDG chloride, N-methyl-D-glucamine chloride]?
Citrate Uptake, cDNA-specific (rat NaCT; [1]): 0.4 ± 0.3 pmol/10^6 cells/min; Citrate Uptake, cDNA (rat NaCT; [2]): 1.6 ± 0.3 pmol/10^6 cells/min; Citrate Uptake, cDNA-specific, % (rat NaCT; [3]): 1%; Citrate Uptake, cDNA (human NaCT; [4]): 1.3 ± 0.2 pmol/10^6 cells/min; Citrate Uptake, cDNA-specific (human NaCT; [5]): −0.1 ± 0.2^ pmol/10^6 cells/min; Citrate Uptake, cDNA-specific, % (human NaCT; relative to NaCl): 0%; Citrate uptake, drIndy (drIndy; [6]): 25.4 ± 1.8 pmol/10^6 cells per min; Fold Increase of citrate uptake (drIndy vs vector) (drIndy; citrate 35 μM, indicated salt): 13.4 fold

With `[Cl-].[Na+]` [NaCl] as the compound, how does the “Citrate Uptake, cDNA-specific” value (rat NaCT; [1]) read?
The value was 38.0 ± 3.3 pmol/10^6 cells/min.

And the “Citrate Uptake, cDNA” value (rat NaCT; [2])?
The value was 38.8 ± 3.3 pmol/10^6 cells/min.

And the “Citrate Uptake, cDNA-specific, %” value (rat NaCT; [3])?
Its value is 100%.

What about the “Citrate Uptake, cDNA” value (human NaCT; [4]) of the same compound?
Its value is 59.9 ± 3.9 pmol/10^6 cells/min.

And the “Citrate Uptake, cDNA-specific” value (human NaCT; [5])?
Its value is 58.4 ± 3.9 pmol/10^6 cells/min.

And the “Citrate Uptake, cDNA-specific, %” value (human NaCT; relative to NaCl)?
Its value is 100%.

And the “Citrate uptake, drIndy” value (drIndy; [6])?
Its value is 57.4 ± 3.3 pmol/10^6 cells per min.

What about the “Fold Increase of citrate uptake” value (drIndy; citrate 35 μM, indicated salt) of the same compound?
The value was 26.1 fold.

`[Na+]` [Na^+] was tested. Which “Hill coefficient (nH) of Na+ dependence of citrate uptake” value (rat NaCT) did it give?
The value was 3.3±0.3.

What about the “Hill coefficient (nH) of Na+ activation” value (mouse NaCT) of the same compound?
The value was 3.3±0.6 and 2.0±0.3.

What about the EC50 (mouse NaCT; read-out: K0.5 for Na+ (half-maximal activation of the transport process)) of the same compound?
Its EC50 is 72 ± 6 mM.

`CC(=O)C(=O)O` [Pyruvate, pyruvate] was tested. Which “[^14C]Citrate uptake, %” value (rat NaCT; [14C]citrate 14 μM, unlabeled compound 2.5 mM, none = 100) did it give?
Its value is 83%.

What about the “[^14C]-Citrate Uptake, %” value (human NaCT; [14C]-citrate 20 μM, unlabeled compound 2.5 mM, none = 100) of the same compound?
The value was 108%.

What about the “[^3H]-Succinate transport, %” value (mouse NaCT; [3H]-succinate 0.1 μM, substrate analog 2 mM, control = 100) of the same compound?
The value was 104%.

What about the “[^14C]-Citrate transport, %” value (mouse NaCT; [14C]-citrate 10 μM, substrate analog 2 mM, control = 100) of the same compound?
The value was 84%.

And the “% Control of cDNA-specific” value (drIndy)?
Its value is 21%.

What does the source list for `O=C([O-])[C@H](O)[C@@H](O)[C@H](O)[C@H](O)CO.[Na+]` [Sodium gluconate]?
Citrate Uptake, cDNA-specific (rat NaCT; [1]): 29.1 ± 2.3 pmol/10^6 cells/min; Citrate Uptake, cDNA (rat NaCT; [2]): 29.6 ± 2.3 pmol/10^6 cells/min; Citrate Uptake, cDNA-specific, % (rat NaCT; [3]): 77%; Citrate Uptake, cDNA (human NaCT; [4]): 61.7 ± 4.7 pmol/10^6 cells/min; Citrate Uptake, cDNA-specific (human NaCT; [5]): 60.1 ± 4.7 pmol/10^6 cells/min; Citrate Uptake, cDNA-specific, % (human NaCT; relative to NaCl): 103%; Citrate uptake, drIndy (drIndy; [6]): 144.2 ± 1.6 pmol/10^6 cells per min; Fold Increase of citrate uptake (drIndy vs vector) (drIndy; citrate 35 μM, indicated salt): 65.6 fold

What does the source list for `O=C(O)CC(O)(C(=O)O)C(O)C(=O)O` (centres unmarked) [hydroxycitrate]?
Inhibition of citrate uptake via NaCT (rat NaCT; 0.1 mM hydroxycitrate, rat NaCT in HRPE cells): 30-40%; Inhibition of citrate uptake via NaCT (human NaCT; 0.1 mM hydroxycitrate, human NaCT in HRPE cells): 30-40%

For `CC(O)CC(=O)O` (stereo not drawn) [β-Hydroxybutyrate], which “% Control of cDNA-specific” value (drIndy) is on record?
The value was 91%.

What about the “cDNA-specific [^3H] succinate uptake” value (drIndy) of the same compound?
Its value is 134.0 ± 9.0 fmol/106 cells per min.
